Where “and” joins values, the source holds several entries; their conditions need not be identical. Equal values may be shown once. Entries after “also recorded” stand apart in the source; their conditions may differ.
Assays:
[1] = test system: cerebellar granule neurons; experiment: LK-induced death of cultured cerebellar granule neurons, viability by DAPI staining; assay type: cell-based, rat; details: for protection against LK-induced neuronal death (FIG. 1): 25 μM, phase contrast microscopy, DAPI-staining, TUNEL-staining; for neuroprotection against LK-induced neuronal death, in words: overall over 1, 5 and 25 μM
Experimental: Culturing and treatments of cerebellar granule neurons: Granule neuron cultures were obtained from dissociated cerebella of 6-7 day old Wistar rats as described previously (D'Mello et al., 1993). Cells were plated in Basal Eagle's Medium (BME) supplemented with 10% fetal calf serum (FCS), 25 mM KCl, 2 mM glutamine (Invitrogen), and 100 μg/ml gentamycin in poly-L-lysine coated 24-well dishes at a density 1×10^6 cells/well. Cytosine arabinofuranoside (10 μM) was added to the culture medium 18-22 h after plating to prevent replication of nonneuronal cells. Previous immunocytochemical analyses by our lab and other investigators have shown that these cultures have high purity containing over 95% granule neurons (Thangnipon et al., 2003; Kingsbury et al., 2005).
The neuronal cultures were maintained for 7-8 days prior to treatment. For treatment, the cells were rinsed once and then maintained in low K+ medium (serum-free BME medium; referred to as LK), or in the case of control cultures, in high K+ medium (serum-free BME medium supplemented with 20 mM KCl; referred to as HK). For treatments, the chemical compounds (dissolved in dimethylsulfoxide) were added directly to LK medium at the time of the switch from HK at concentrations of 1, 5, or 25 μM. Viability was assessed 24 hours by 4′,6′-diamidino-2-phenylindole hydrochloride (DAPI) staining (see below). Each compound was tested in duplicate (at each of the concentrations) and the experiment repeated at least 3 times.
The viability status of neuronal cultures treated with HK, LK, or LK medium supplemented with various compounds was evaluated by phase contrast microscopy and quantified by staining cell nuclei with DAPI as previously described (Yalcin et al., 2003; Morrison et al., 2006; Majzadeh et al., 2007)). Briefly, the cells were fixed in 4% paraformaldehyde for 20 min at 4° C. After washing in phosphate buffered saline, diamidino-2-phenylindole hydrochloride (DAPI; 1 μg/ml in phosphate buffered saline) was added for 15 min at room-temperature and viewed under ultraviolet light (260 nm). Cells with condensed or fragmented nuclei were scored as dead. Viability has been expressed as percent of control cultures, which were switched to HK medium). Statistical analysis was performed using an unpaired, two-tailed Student's T test, compared to mean neuronal survival of control cultures receiving LK treatment.
When cultured cerebellar granule neurons are switched from HK to LK medium about 50% of the cells underwent apoptosis within 24 h (D'Mello et al., 1993). The inventors utilized this widely used and recognized model to test a total of 20 different 1,4-benzoxazine derivatives for their ability to protect against LK-induced neuronal death. Each compound was tested at 3 different doses—1 μM, 5 μM and 25 μM and viability quantified by DAPI-staining. The highest does was included to test for possible toxicity effects of the compounds. Key results were confirmed using TUNEL staining, another reliable assay of apoptosis (FIG. 1). As shown in Table 1 and FIG. 1, the present invention identifies several compounds with significant neuroprotective effect. Two of the most protective compounds are HSB-13 and HSB-22, both with Ar=3′,5′-dibromo-4′-hydroxyphenyl (FIG. 1). […] Protection with this compound is lower than that observed with HSB-13 and HSB-22 at the two lower doses. […] To examine whether a higher level of protection could be observed at doses lower than 1 μM, the analyses of these compounds was extended to doses of 0.5, 0.25, and 0.1 μM.
When cultured cerebellar granule neurons are switched to LK medium, about 50% of the cells undergo apoptosis within 24 h. In this study, a total of 20 different 1,4-benzoxazine derivatives of the structure shown in FIG. 1 were tested for their ability to protect against LK-induced death of cerebellar granule neurons. Each compound was tested at 3 different doses —1 μM, 5 μM and 25 μM. […]

phospho-GSK3β = experiment: Western blot of signaling proteins in LK-treated cerebellar granule neurons: phospho-GSK3β; assay type: cell-based, rat; details: LK medium with compound, 3 h
Experimental: Cultures of cerebellar granule neurons were switched to HK medium, LK medium, or LK medium containing of HSB-13, HSB-22, or ASK-2a for 3 h. Total cell lysates were prepared and analyzed by Western blotting using antibodies against phospho-Akt (Ser473), phospho-MEK, phospho-ERK, and phospho-GSK3β.
The culture medium was removed and the cells were washed twice with ice-cold phosphate-buffered saline (PBS) and lysed in lysis buffer [1% Triton, 20 mM Tris-HCl (pH 7.5), 150 mM NaCl, 1 mM Na2EDTA, 1 mM EGTA, 2.5 mM sodium pyrophosphate, 1 mM beta-glycerophosphate, 1 mM Na3VO4, 1 μg/mL leupeptin and 1 protease inhibitor mixture]. Protein concentrations were measured and normalized using Bradford protein assay reagent (Bio-Rad, Hercules, Calif., USA). Following normalization, 40 μg of protein was subjected to Western blotting. Immunoreactivity was examined by enhanced chemiluminescence (Amersham Bioscience, Piscataway, N.J., USA).
Since the Raf-MEK-ERK and the PI-3 Kinase-Akt pathways are not required for neuroprotection by HSB-13, the involvement of other signaling molecules that are known to promote neuronal survival was determined. GSK3β is a proapoptotic molecule that is activated during apoptosis in many neuronal and non-neuronal systems. Under survival promoting conditions GSK3β is kept inactivated by phosphorylation at an inhibitory site, a modification that can be induced by Akt as well as by other kinases.

[2] = Table 1, 5 μM in LK medium, 24 h, % of survival in control cultures in HK medium, LK alone 48%
[3] = Table 1, 25 μM in LK medium, 24 h, % of survival in control cultures in HK medium, LK alone 48%
[4] = Table 4, 1 μM in LK medium, % of survival in HK control cultures, LK alone 48.16±8.44%
[5] = Table 4, 5 μM in LK medium, % of survival in HK control cultures, LK alone 48.16±8.44%
[6] = Table 4, 25 μM in LK medium, % of survival in HK control cultures, LK alone 48.16±8.44%

Row | SMILES | protection against LK-induced neuronal death (FIG. 1) ([1]; 24 h) | % Survival [1, 2] [%] | % Survival [1, 3] [%] | % Survival [1, 4] | % Survival [1, 5] | % Survival [1, 6] | neuroprotection against LK-induced neuronal death, in words [1] | dephosphorylation of GSK3β in LK (phospho-GSK3β) | % Survival ([1]; Table 1, 1 μM in LK medium, 24 h, % of survival in control cultures in HK medium, LK alone 48%) [%]
1 | O=C1Nc2cc(Cl)ccc2O/C1=C\c1cc(Br)c(O)c(Br)c1 [HSB-22] | protective | 87.54 ± 8.83 | 91.24 ± 9.03 | 92% and 91.9 ± 1.98 % | 97% and 96.7 ± 2.96 % | 90.6% and 90.6 ± 0.84 % | effective in all the three concentrations | inhibit dephosphorylation | –
2 | O=C1Nc2ccccc2OC1=Cc1cc(Br)c(O)c(Br)c1 [ASK-2a] | protective | 80.84 ± 9.31 | 95.12 ± 3.28 | – | – | – | much higher neuroprotection than ASK2; also recorded: high level of neuroprotection; also recorded: effective in all the three concentrations | inhibit dephosphorylation | 74.01 ± 6.93
3 | Nc1ccc2c(c1)NC(=O)/C(=C/c1cc(Br)c(O)c(Br)c1)O2 [HSB-13, (Z)-6-amino-2-(3,′5′-dibromo-4′-hydrozybenzylidene)-2H-benzo[b][1,4]oxazin-3(4H)-one] | protective | 100.2 ± 2.25 | 95.1 ± 5.06 | 83.1 ± 4.53 % | 100.8% and 100.8 ± 0.07 % | 99.5% and 99.5 ± 1.56 % | highest neuroprotection; also recorded: effective in all the three concentrations | not inhibited | –
